Legend:
[1] = Fluorescence emission, quantum yield and lifetime; assay type: physicochemical; conditions: in ethanol
Procedure: The fluorescence emission spectra were recorded in the homemade setup composed of a Horiba-Jobin Fluoromax 4, used to excite the samples, connected to a sample holder through an optical fiber. In the sample holder, perpendicular to excitation fiber, an optical fiber is connected to drive the emission light to the spectrophotometer detector Avantes model SensLine, provided with AvaSoft 7.7.2. The excitation slit was set at 2 mm and the integration time was 3 s, with average number of 3. The spectra were collected from 200 nm up to 1100 nm using standard cuvettes of 1 cm of optical path. Fluorescence quantum yields (ΦF) were obtained comparing the integrated fluorescence of the samples with that of a reference fluorimetric compound with known ΦF.
The fluorescence lifetime was determined in homemade equipment composed of a LED that produces a light pulse for exciting the sample, a sample holder, detector and optics. […]
This is indicative of negligible aggregation between the molecules, which exist mostly as monomers at these concentrations in the solvents studied. […] The same table also presents triplet lifetimes (τT) in air and N2 saturated solutions, fluorescence lifetime (τS), the quantum yields of fluorescence (ΦF), triplet state formation (ΦT), and singlet oxygen generation (ΦΔ) in ethanol, and photodegradation quantum yield (Φpd) in methanol:PBS (3:2). […]

[2] = Triplet-triplet transient absorption / photoacoustic calorimetry; assay type: physicochemical
Procedure: The triplet-triplet transient absorption was recorded in an Applied Photophysics LKS.60 laser flash photolysis spectrometer, with a Hewlett-Packard Infinium Oscilloscope and a Spectra-Physics Quanta-Ray GCR-130 Nd:YAG laser as excitation source. The pulse excitation was set at 355 nm.
The thermal energy released after electronic excitation was measured by time-resolved photoacoustic calorimetry using a front-face irradiation photoacoustic cell and a EKSPLA OPO model PG-122 pumped by an EKSPLA Nd:YAG. The signal detection was made using a 2.25 MHz Panametrics transducer. The excitation was at 690 nm and azulene was used as photoacoustic calorimetry reference.
This is indicative of negligible aggregation between the molecules, which exist mostly as monomers at these concentrations in the solvents studied. Table 1 presents the infrared molar absorption coefficient (εmax) and wavelength maximum in ethanol of a typical carboxamide halogenated bacteriochlorin derivative of Formula (I). The same table also presents triplet lifetimes (τT) in air and N2 saturated solutions, fluorescence lifetime (τS), the quantum yields of fluorescence (ΦF), triplet state formation (ΦT), and singlet oxygen generation (ΦΔ) in ethanol, and photodegradation quantum yield (Φpd) in methanol:PBS (3:2). Triplet decays were clearly mono-exponential and in air-saturated ethanol the triplet lifetimes were in the range of 200 to 300 nanoseconds. Such values are consistent with diffusion limited energy transfer from the triplet state of the photosensitizer to molecular oxygen through a charge-transfer interaction (8). The absorption intensity of the test compounds in the photobleaching studies followed a mono-exponential decrease as a function of the illumination time.

[3] = test system: A549 (human lung adenocarcinoma) cell line; experiment: In vitro phototoxicity / dark toxicity towards A549 cells; assay type: cell-based
Procedure: Phototoxicity towards cancer cell lines was evaluated in vitro using A549 (human lung adenocarcinoma) and CT26 (mouse colon adenocarcinoma) cell lines. The cells were cultured in Dulbecco's modified Eagles's medium (DMEM) supplemented with 10% heat-inactivated fetal bovine serum and 1% penicillin. Cells were plated at a density of 20,000/well and 15,000/well respectively, in flat-bottom 96-well plates. On the following day, diluted solutions of the test compound were prepared (1 mM stock) and added to the cells for 30-min incubation. […] The wells were washed two times with PBS and irradiated after 30-min of incubation using the LED light described above. Light dose was 1 J/cm^2. The medium was replaced with fresh one after irradiation and the plates were incubated for 24 h, at which time the cellular viability was assessed by resazurin method using a microplate spectrophotometer (Synergy HT Biotek).
This example describes the evaluation of in vitro phototoxicity of a carboxamide bacteriochlorin with formula IX after light irradiation, and their potential for PDT of cancer. The formulation employed was the same as that of Example 4. […] The phototoxicity was measured according to the description in the Materials and Methods section. The phototoxicity of the test compound was assessed in terms of the percentage of survival of the cells for various concentrations of the test compound incubated for 30 min, followed by washings with PBS, addition of the culture medium and illumination with a light dose of 1 J/cm^2.

With `CNC(=O)c1c2nc(c(-c3c(F)cccc3F)c3ccc(cc4nc(c(-c5c(F)cccc5F)c5ccc1[nH]5)CC4)[nH]3)CC2` [formula IX, 5-methylcarboxamide-10,20-bis-(2,6-difluorophenyl)bacteriochlorin] the “ΦF fluorescence quantum yield” value [1] was 0.20, the τS fluorescence lifetime [1] was 3.2 ns and the “τT (N2) triplet lifetime” value ([2]; N2-saturated ethanol) was 71 ± 5 μs. The “τT (air) triplet lifetime” value ([2]; air-saturated ethanol) was 210 ns, the “ΦT triplet state formation quantum yield” value ([2]; in ethanol) was 0.45 and the IC50 ([3]; 30 min incubation, irradiated with 1 J/cm^2) was 2.5 nM. The “photosensitizer concentration at which nearly all cells are killed” value ([3]; A549, 30 min incubation, 1 J/cm^2 (FIG. 6)) was 50 nM and the “concentration with no signs of toxicity in the dark” value ([3]; A549, incubation in the dark for 30 min) was “up to 40 μM”.

Reference: patent publication US10450322B2, “Low molecular weight derivatives of carboxamide halogenated porphyrins, namely chlorins and bacteriochlorins, and their applications thereof” (LUZITIN, S.A., priority 2015, dated 2019)
